Reference: ChEMBL document CHEMBL3352684, “Discovery of MK-3697: a selective orexin 2 receptor antagonist (2-SORA) for the treatment of insomnia” (Bioorg Med Chem Lett, 2014)
Converted amounts (≈) assume the structure as drawn.

Key:
Orexin receptor type 2 [1] = target: T1, Orexin receptor type 2 (Homo sapiens, UniProt O43614); assay: Displacement of (S)-N-(2-(1H-pyrrol-1-yl)phenyl)-1-(2-([3H]-1-methyl-1H-benzo[d]imidazol-2-ylthio)acetyl)pyrrolidine-2-carboxamide from human OX2R expressed in CHO cells after 3 hrs by topcount analysis; type: cell-based
T1 sequence (O43614 whole entry): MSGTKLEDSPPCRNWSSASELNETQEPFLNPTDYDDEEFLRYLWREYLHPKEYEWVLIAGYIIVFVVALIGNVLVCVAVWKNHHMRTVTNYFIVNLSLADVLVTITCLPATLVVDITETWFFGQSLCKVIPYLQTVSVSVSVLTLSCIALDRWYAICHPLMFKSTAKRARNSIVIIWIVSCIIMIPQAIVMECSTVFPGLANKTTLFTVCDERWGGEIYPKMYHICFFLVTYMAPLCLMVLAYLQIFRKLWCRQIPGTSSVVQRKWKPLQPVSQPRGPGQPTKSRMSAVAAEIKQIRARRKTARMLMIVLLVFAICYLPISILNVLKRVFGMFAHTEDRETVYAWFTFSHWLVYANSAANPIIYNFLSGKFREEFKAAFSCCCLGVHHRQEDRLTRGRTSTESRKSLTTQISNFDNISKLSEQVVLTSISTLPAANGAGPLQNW

[2] = target: T2, Orexin/Hypocretin receptor type 1 (Homo sapiens, UniProt O43613, I408V); assay: Displacement of N-cyclobutyl-5-methyl-N-(2-([3H]-1-methyl-1H-benzo[d]imidazol-2-ylthio)ethyl)-2-(2H-1,2,3-triazol-2-yl)benzamide from human OX1R I408V mutant expressed in CHO cells by topcount analysis; type: cell-based
T2 sequence (O43613 whole entry I408V): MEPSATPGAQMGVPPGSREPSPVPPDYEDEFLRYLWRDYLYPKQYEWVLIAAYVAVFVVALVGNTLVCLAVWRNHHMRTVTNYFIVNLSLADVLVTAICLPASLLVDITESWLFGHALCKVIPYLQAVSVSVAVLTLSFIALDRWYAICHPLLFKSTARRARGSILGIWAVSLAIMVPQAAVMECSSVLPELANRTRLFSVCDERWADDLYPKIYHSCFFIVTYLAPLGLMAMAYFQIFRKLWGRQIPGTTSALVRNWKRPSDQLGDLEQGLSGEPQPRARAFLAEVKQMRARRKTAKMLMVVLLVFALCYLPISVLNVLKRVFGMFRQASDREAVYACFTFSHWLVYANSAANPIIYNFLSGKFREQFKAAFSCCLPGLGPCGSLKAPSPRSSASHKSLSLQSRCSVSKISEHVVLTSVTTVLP

Orexin receptor type 2 [3] = target: T1, Orexin receptor type 2; assay: Antagonist activity at human OX2R expressed in CHO cells assessed as inhibition of Ala-6,12-orexinA-induced effect after 5 mins by FLIPR assay; type: cell-based
[4] = target: T2, Orexin/Hypocretin receptor type 1; assay: Antagonist activity at human OX1R I408V mutant expressed in CHO cells assessed as inhibition of Ala-6,12-orexinA-induced effect after 5 mins by FLIPR assay; type: cell-based
CHO [5] = assay: Selectivity ratio of Ki for human OX1R I408V mutant expressed in CHO cells to Ki for human OX2R expressed in CHO cells; type: cell-based
CHO [6] = assay: Selectivity ratio of IC50 for human OX1R Ile408Val mutant expressed in CHO cells to IC50 for human OX2R expressed in CHO cells; type: cell-based
[7] = Clearance in dog with cassette dosing; type: ADME, organism-based, Canis lupus familiaris; conditions: in vivo
[8] = Drug degradation in buffer assessed as compound remaining at pH 2 after 24 hrs; type: physicochemical; conditions: for remaining at 24 h: pH 2, read-out: Stability
[9] = Solubility of the compound in buffer at pH 7; type: physicochemical
[10] = Solubility of the compound in buffer at pH 2; type: physicochemical
CYP3A4 [11] = target: T3, CYP3A4 (Homo sapiens, UniProt P08684); assay: (§1) Time dependent inhibition of CYP3A4 (unknown origin); type: ADME; conditions: human
T3 sequence (P08684 whole entry): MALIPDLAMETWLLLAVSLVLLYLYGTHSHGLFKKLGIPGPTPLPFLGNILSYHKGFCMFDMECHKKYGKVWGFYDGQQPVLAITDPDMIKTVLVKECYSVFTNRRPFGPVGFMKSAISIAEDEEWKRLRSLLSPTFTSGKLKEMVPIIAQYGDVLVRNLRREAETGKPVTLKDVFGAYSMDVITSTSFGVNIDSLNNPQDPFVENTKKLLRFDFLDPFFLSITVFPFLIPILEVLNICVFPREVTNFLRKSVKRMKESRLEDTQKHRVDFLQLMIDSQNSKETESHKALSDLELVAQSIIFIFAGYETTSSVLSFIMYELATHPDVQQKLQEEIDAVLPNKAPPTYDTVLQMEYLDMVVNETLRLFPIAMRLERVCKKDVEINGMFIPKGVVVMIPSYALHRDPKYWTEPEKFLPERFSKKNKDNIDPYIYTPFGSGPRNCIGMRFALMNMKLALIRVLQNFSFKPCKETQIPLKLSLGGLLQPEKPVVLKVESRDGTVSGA

Cytochrome P450 3A4 = Cytochrome P450 3A4 (Homo sapiens, UniProt P08684); assay: as §1; type: ADME
Chain of Cytochrome P450 3A4 (P08684 whole entry): as above

CYP3A4 [12] = target: T3, CYP3A4; assay: Ratio of Kinact to Ki for CYP3A4 (unknown origin); type: ADME

| Ki (Orexin receptor type 2 [1]) [nM] | Ki [2] [nM] | IC50 (Orexin receptor type 2 [3]) [nM] | IC50 [4] [nM] | clearance [7] [mL/min/kg] | remaining at 24 h [8] [%] | solubility [9] [µM] | solubility [10] [µM] | Stability ([8]; pH 2, 24 h) | kinact (CYP3A4 [11]) [s⁻¹] | Ki (Cytochrome P450 3A4) [nM] | kinact/KI (CYP3A4 [12]) [M⁻¹ s⁻¹] | Compound | Ratio Ki (CHO [5]) | Ratio IC50 (CHO [6]) |
| --- | --- | --- | --- | --- | --- | --- | --- | --- | --- | --- | --- | --- | --- | --- |
| 9 | 4100 | 420 | > 10000 |  |  |  |  |  |  |  |  | COc1ccc(CNC(=O)c2cc(-c3cncc(C)c3)nc3onc(-c4ccccc4)c23)nc1OC | 456 | > 24 |
| 11 | 23000 | 120 | > 10000 | 47 |  |  |  |  |  |  |  | COc1ccc(CNC(=O)c2nc(-c3cncc(C)c3)ncc2-c2ccccc2)nc1OC |  | > 83 |
|  | 8500 | 31 | > 20000 | 37 |  |  |  |  |  |  |  | COc1ccc(CNC(=O)c2nc(-c3cncc(C)c3)cnc2-c2ccccc2)nc1OC | 6070 | > 645 |
| 4.5 | 14000 | 37 | 10000 |  |  |  |  |  |  |  |  | COc1ccc(CNC(=O)c2cc(-c3cncc(C)c3)ncc2N2CCCC2)nc1OC | 3110 | > 270 |
|  |  |  |  |  | 100 | 10 (≈ 4.61 µg/mL) | 16 (≈ 7.37 µg/mL) |  |  |  |  | COc1ccc(CNC(=O)c2cc(-c3cncc(Cl)c3)cnc2-c2ccccc2)nc1OC |  |  |
| 75 | 1500 | 3500 | 10000 | 15 |  |  |  |  |  |  |  | COc1ccc(CNC(=O)c2cc(-c3cncc(C)c3)ncc2N2CCOCC2)nc1OC | 20 | > 3 |
| 0.5 | 2700 | 21 | 2800 | 15 |  |  |  | Stable | 0.000217 | 5600 | 217 | COc1ccc(CNC(=O)c2cc(-c3cncc(C)c3)ncc2-c2ccccc2)nc1OC | 5400 | 133 |
| 1.4 | 7900 | 36 | 4650 |  |  |  |  |  |  |  |  | COc1ccc(CNC(=O)c2cc(-c3cncc(C)c3)ncc2-c2ccccn2)nc1OC | 5640 | 129 |
| 0.3 | 1000 | 14 | 1540 | 51 |  |  |  |  |  |  |  | COc1ccc(CNC(=O)c2cc(-c3cncc(C)c3)ccc2-c2ccccc2)nc1OC | 3330 | 110 |
| 11 | 15000 | 170 | > 10000 |  |  |  |  |  |  |  |  | COc1ccc(CNC(=O)c2cc(-c3cncc(C)c3)nnc2-c2ccccc2)nc1OC | 1360 | > 59 |
| 1.4 | 8600 | 25 | 3000 | 17 |  |  |  |  |  |  |  | COc1ccc(CNC(=O)c2cc(-c3cncc(C)c3)ncc2-c2ccccc2F)nc1OC | 6140 | 120 |
| 0.3 | 720 | 13 | 2000 | 27 | 100 | 61 (≈ 26.9 µg/mL) | 180 (≈ 79.3 µg/mL) |  |  |  |  | COc1ccc(CNC(=O)c2cc(-c3cncc(C)c3)cnc2-c2ccccc2)nc1OC | 2400 | 154 |
| 5.2 | 17000 | 57 | 10000 | 19 |  |  |  |  |  |  |  | COc1ccc(CNC(=O)c2cc(-c3cncc(C)c3)ncc2-c2cncc(F)c2)nc1OC | 3270 | 192 |
| 10 | 18000 | 83 | 10000 | 19 |  |  |  |  |  |  |  | COc1ccc(CNC(=O)c2cc(-c3cncc(C)c3)ncc2N2CCC2)nc1OC | 1800 | > 120 |
| 7.6 | 31000 | 109 | 10000 | 24 |  |  |  |  |  |  |  | COc1ccc(CNC(=O)c2cc(-c3cncc(C)c3)ncc2-c2cnccn2)nc1OC | 4080 | > 92 |
| 193 | 39000 | 1450 | 15000 |  |  |  |  |  |  |  |  | COc1ccc(CNC(=O)c2cc(-c3cncc(C)c3)ncc2-c2ccnnc2)nc1OC | 202 | > 10 |
| 140 | 12000 | 1060 | > 10000 |  |  |  |  |  |  |  |  | COc1ccc(CNC(=O)c2sc(-c3cncc(C)c3)nc2-c2cccc(F)c2)nc1OC | 86 | > 9 |
| 43 | 2400 |  |  | 28 |  |  |  |  |  |  |  | COc1ccc(CNC(=O)c2nc(-c3cncc(C)c3)ccc2-c2ccccc2)nc1OC | 56 |  |
|  | 4000 | 16 | 1950 | 18 |  |  |  |  |  |  |  | COc1ccc(CNC(=O)c2cc(-c3cncc(C)c3)ncc2-c2cccc(F)c2)nc1OC | 4440 | 122 |
|  |  |  |  |  |  |  |  |  | 0.00183 | 9500 | 200 | COc1ccc(CNC(=O)c2cc(-c3cncc(Cl)c3)cnc2-c2ccccn2)nc1OC [MK-1064] |  |  |
| 4.1 | 930 | 167 | 10000 |  |  |  |  |  |  |  |  | COc1ccc(CNC(=O)c2cc(-c3cncc(C)c3)ncc2-c2cnn(C)c2)nc1OC | 227 | > 60 |
